Assay results: patent publication US20190343853A1, “METHODS OF TREATING HYPERTENSION” (THERACOS SUB, LLC, priority 2018, published 2019)

Columns and labels:
[1] = system: subjects with diabetes; assay: Example 1/2: multicenter double-blind placebo-controlled 96 week trial, seated office blood pressure and blood-pressure TEAEs; assay type: in vivo, human
Experimental: In a multicenter double-blind placebo-controlled trial, subjects with diabetes were administered Compound 1, 20 mg per day or placebo for 96 weeks. The blood pressure of resting seated subjects was measured at every office visit. Although the study population was not specifically recruited to contain participants with hypertension, a fraction of the population was affected by the disease and the mean baseline systolic blood pressure of the entire study population was 127 mm Hg. The effects of Compound 1 and placebo on systolic and diastolic blood pressure as a function of time are shown in FIG. 5 (systolic) and FIG. 6 (diastolic).
A treatment emergent adverse event (TEAE) is an adverse event that develops during or immediately following the period of exposure to the investigational product in a clinical trial. An adverse event is any event that represents an unfavorable change in the health of the individual that is clinically significant—it may represent a new condition or status or materially worsened pre-existing condition. In the clinical trial of Example 1, hypertension was recorded as a TEAE in 2 subjects that had been administered Compound 1 and in 5 subjects administered placebo. […] One episode of hypotension was observed among subjects administered Compound 1 and none among subjects administered placebo. The lower incidence of hypertensive TEAEs and the single episode of hypotension are consistent with the antihypertensive effect of Compound 1. In addition, the observation of only a single episode of hypotension is notable because the mean systolic blood pressure at baseline was only 127 mm Hg, well below the 140 mm Hg level that demarks a widely adopted standard for the diagnosis of hypertension.

[2] = system: subjects with seated office systolic blood pressure of ≥140 mm Hg and <180 mm Hg; assay: Study THR-1442-C-603A: double-blind placebo-controlled 12 week trial in a hypertensive population not pre-selected for diabetes; assay type: in vivo, human
Experimental: A qualified ABPM record contained no fewer than 64 measurements over an approximately 24 h period and a mean SBP≥135 mm Hg.
A total of 678 subjects were randomly assigned to the active arm or to the placebo arm.
The study was conducted in the United States at multiple clinical sites. The randomized population consisted of 409 male and 269 female participants with a mean age ±standard deviation of 58.5±11.74. […] 64.7% were self-declared Caucasian, 29.9% African-American, 1.6% Asian, 0.3% Native American/Native Alaskan, 0.1% Native Hawaiian/Other Pacific Islander, 1.0% Multiracial and 2.2% Other. 8.1% self-declared Hispanic or Latino ethnicity. The study population was obese, having a median body mass index (kg m^−2) of 31.9 and a mean weight of 98.3±35.0 kg. A history of diagnosed diabetes was elicited from 24.3% of the subjects and 18.0% were presently unmedicated for hypertension.
The baseline 24 h average SBP from ABPM was 147.3±9.93 and the DBP was 84.5±9.65. 11.7% of the subjects produced a baseline ABPM SBP≥160 mm Hg.
Following self-administration of investigational product for 12 weeks, subjects underwent ABPM to assess the potential treatment effect. After the first 300 subjects had completed 12 weeks of participation, the mean SBP was 140.90, corresponding to a decrease from baseline in the entire population of 6.4 mm Hg.
A total of 678 subjects were randomized, of whom 5 were excluded for major protocol violations. Of the remaining 673 participants, 307 out of 334 in the bexagliflozin arm and 319 out of 339 in the placebo arm completed the study. The arms were well-balanced in general by demographic characteristics. The population was predominantly male (60.5%) and Caucasian (65.2%) with the remainder by race predominantly of African heritage (29.4%). Participants of Latino ethnicity comprised 8.0% of the total. The mean age was 58.9 years and 24.8% were diabetic. The mean subject was obese with a BMI of 32.6 kg/m^2, and 81% reported at least one prescription for anti-hypertensive medication. ACE inhibitors and ARBs were the most commonly encountered agents. Calcium channel blockers, diuretics and β-blockers were the next most commonly encountered, in that order. The mean seated office blood pressure was 156/91 with a heart rate of 73. The mean ABPM at baseline was 147.5/85.0. Nearly all participants had preserved renal function.

[3] = system: spontaneously hypertensive rat, stroke prone strain (SHRSP); conditions: previously reported (Zhang 2011); cited from earlier work
[4] = subjects with systolic blood pressure of 140 mm Hg or above at study entry, 20 mg per day, persisted for duration of trial

## OC[C@H]1O[C@@H](c2ccc(Cl)c(Cc3ccc(OCCOC4CC4)cc3)c2)[C@H](O)[C@@H](O)[C@@H]1O [Compound 1, (2S,3R,4R,5S,6R)-2-(4-chloro-3-(4-(2-cyclopropoxyethoxy)benzyl)phenyl)-6-(hydroxymethyl)tetrahydro-2H-pyran-3,4,5-triol]
[1]; 20 mg per day, 96 weeks
  episodes of hypotension: One
  hypertension recorded as a TEAE: 2 subjects
  hypertensive crisis: 0 subjects
[1]; mean systolic blood pressure at baseline 127 mm Hg
  propensity for producing deleterious reductions in blood pressure: favorably low propensity
[1]; [4]
  reduction in diastolic blood pressure: approximately 7 mm Hg
  reduction in systolic blood pressure: approximately 12 mm Hg
[2]; 20 mg tablets, 12 weeks
  proportion of subjects achieving a seated office DBP≤90 mm Hg: 0.65
  proportion of subjects achieving a seated office SBP≤140 mm Hg: 0.38
[2]; 20 mg tablets, 12 weeks, 95% confidence interval −6.83, −2.42, p<0.0001
  placebo-adjusted change in seated office SBP from baseline: −4.63 mm Hg
[2]; 20 mg tablets, week 12, 95% CI −3.70, −0.91, p=0.0011
  placebo-adjusted change in seated office DBP from baseline: −2.31 mm Hg
[2]; ABPM
  anti-hypertensive effect over the 24 h ABPM data collection period (hourly change in blood pressure): did not show significant waning
[2]; ABPM, p=0.0025
  placebo-adjusted reduction in ambulatory mean SBP from baseline to week 12: 2.72 mm Hg
[2]; active arm, 12 weeks
  adverse events by percentage among participants: 41.9%
  adverse events leading to subject withdrawal or treatment discontinuation: 1.8%
[2]; active versus placebo arm
  serious adverse events: balanced between the arms
[2]; subgroup: concomitant diuretic use, p=0.0021
  treatment effect by ABPM SBP measurement: −5.60 mm Hg
[2]; subgroup: concomitant β-blocker use, p=0.0012
  treatment effect by ABPM SBP measurement: −6.26 mm Hg
[2]; subgroup: history of diabetes, p=0.0023
  treatment effect by ABPM SBP measurement: −6.07 mm Hg
[2]; subgroup: participants with stage 3 CKD, p=0.0571
  treatment effect by ABPM SBP measurement: −7.53 mm Hg
[2]; subgroup: use of 3 or more anti-hypertensive medications, p=0.0071
  treatment effect by ABPM SBP measurement: −5.55 mm Hg
[2]; versus placebo arm, 95% CI 1.13, 2.35, p=0.0094
  odds ratio for achieving seated office DBP≤90 mm Hg: 1.63
[2]; versus placebo arm, 95% CI 1.32, 2.62, p=0.0004
  odds ratio for achieving seated office SBP≤140 mm Hg: 1.86
[3]
  effect in SHRSP rat: protective effects
